# Experimental data as given in patent publication US5236900A, “Anti-fungal agents” (Schering Corporation, priority 1991, dated 1993).
# Columns and labels:
# [1] = system: Sensitive strains: Candida albicans C141, Candida sp. C2, Candida sp. C109, Candida parapsilosis C67, Candida tropicalis C112, Torulopsis glabrata C95, Candida …; assay: Microtiter minimum inhibitory concentration (MIC) test, sensitive strains; type: cell-based, Candida spp., Sacchararomyces; details: geometric mean of MICs against sensitive strains; YNB pH 5.4, 37° C., 48 hours
# Protocol: (§1) In vitro anti-fungal activity was determined in microtiter minimum inhibitory concentration (MIC) tests using Yeast Nitrogen Broth (YNB without amino acids, Difco., Detroit, Mich.) at pH 5.4. Yeasts were grown overnight in Sabouraud Dextrose Broth at 28° C. with shaking, and concentrations adjusted in sterile saline using a spectrophoptometer at 540 mμ. Compounds were dissolved in various vehicles and diluted in media to twice the final concentrations. The Cetus Pro/Pette system was used to serially dilute 50 μl in round bottom 96 well plates (Falcon, Lincoln Park, N.J.). The turbidometrically adjusted yeast suspensions were diluted 1:3,000 in YNB. These dilutions when added to the wells, produced a final inoculum of 3×10^3 /ml. Plates were incubated at 37° C. for 48 hours. MICs were defined as the lowest concentrations of compound that prevented visible growth. MICs were taken against the following organisms and expressed in the table above as the geometric mean.
# Candida pseudotropicalis C 967
# Candida guillermondii C137
# Sacchararomyces mutant C147
# [2] = system: Resistant strains: Candida albicans C79, C6, C8, C31, C54, C70, C104, C138, C140; Candida stellatoidea C45; assay: Microtiter minimum inhibitory concentration (MIC) test, resistant strains; type: cell-based; details: geometric mean of MICs against resistant strains; YNB pH 5.4, 37° C., 48 hours
# Protocol: as §1
substance,measurement,setting,value
6'-Dodecylamido-5-N-L-Valinyl-UPOC [Compound 3],MIC-S,[1],26 mg/L
same,MIC-R,[2],17 mg/L
